Experimental data: patent US11160766B2, “Peritoneal therapeutic fluid” (OPTERION Health AG, priority 2015, dated 2021)
Values joined by “and” are separate entries in the source; they are usually repeats but may differ in a detail not shown here. Identical values can stand only once.

How the values were obtained:
[1] = tested on: Human peritoneal mesothelial cells (HPMC); test: resazurin cell viability assay on HPMC exposed to PD solutions; type: cell-based; details: for type of dialysis solution mainly improved: summary of example 4; for effect on cell viability in control medium: Medium control without cytotoxic stress, until Cmax (500 μM); for effect reducing cyto-toxicity of all three tested peritoneal dialysis solutions: Example 2 conclusion, PD solutions #1 to #3; for cell viability on Glucose based and on Icodextrin based PD-Solutions: summary of examples 1 to 4; for improvement of viability of HPMC cells (resazurin to resorufin conversion): Example 3, added 5 minutes in advance, triplicate
Experimental: (§1) Human peritoneal mesothelial cells (HPMC) were purchased from Zen Bio Inc. and cultured in cell culture flasks using suppliers media. Near confluent HPMC were harvested by trypsinization, seeded into collagen-coated 96-well tissue culture plates (Corning) and allowed to adhere overnight. The medium was changed to twice diluted with dialysis solution for 48 up to 72 hours.
Cell viability was established applying the promega resazurin assay, following the suppliers protocol. Living cells are metabolically active and are able to reduce the non-fluorescent dye resazurin to the strongly-fluorescent dye resorufin. The fluorescence output is proportional to the number of viable cells over a wide concentration range. This also allows the calculation of the proliferation rate for cells capable of consecutive cell division. […] For the dose-response relationship, relative viability was plotted against the test item concentrations.
All assays were conducted in a duplex format using the same cell culture.
Addition of selected BCAs of this invention partially reestablished reszurin to reorufin conversion, which is interpreted as a result of a decreased cytotoxicity, due to the application of the tested BCAs. Compounds were added at 9 dilutions (Cmax=500 μM) together with tested PD solutions or Medium control. Incubation was 48 hours.
Addition of selected BCA resveratrol partially reestablished resazurin to reorufin conversion, in a triplicate assay, which is interpreted as a result of a decreased cytotoxicity, due to the application of the tested BCA. In this series, Resveratrol was added 5 minutes in advance to application of test-solutions, at 9 dilutions (Cmax=500 μM). Incubation was 72 hours.
partially reestablished resazurin to reorufin conversion, or partly re-established intracellular ATP-level, which is interpreted as a result of a decreased cytotoxicity, due to the application of the tested BCA. Test items were tested at 3 replicates per concentration. All assays were conducted in a duplex format using the same cell culture. Incubation was 72 hours.

[2] = tested on: Human peritoneal mesothelial cells (HPMC); test: CTG assay, intra-cellular ATP level in HPMC exposed to PD solution; type: cell-based; details: Example 4; PD-Solution #4; 72 hours
Experimental: as §1
In the case of Piceid, the intra-cellular ATP level was determined with the CTG assay. For this, media was completely removed from all wells by aspiration, 60 μl of CTG reagent was added to each well, and incubated for 5 min at RT while softly shaking (50 rpm). Using a Victor3 1420 Multilabel Counter, the emitted luminescence produced in the CTG assay was measured. For the dose-response relationship, absolute luminescence (background subtracted) was related to the negative (medium) control and relative viability values were plotted against the test item concentrations. For the dose-response relationship, absolute luminescence (background subtracted) was related to the negative (medium) control and relative viability values in presence of BCA were plotted against the BCA concentrations.
partially reestablished resazurin to reorufin conversion, or partly re-established intracellular ATP-level, which is interpreted as a result of a decreased cytotoxicity, due to the application of the tested BCA. […]

[3] = concentration (solubility) after stirring at room temperature; type: physicochemical
Experimental: Concentrations of BCA in the present invention are preferably measured after 1 hour stirring at room temperature (which is preferably 20-23° C., more preferably 22° C.), particularly if the BCA is a polyphenolic compound, a metabolite of a polyphenolic compound which is obtained by metabolization in the human or animal body, a salt of a polyphenolic compound, a glycoside of a polyphenolic compound, or derivative of these compounds. So, concentrations of said compound correspond to measured solubility after 1 hour stirring at room temperature. Concentration is measured in a PTF of the invention. So, BCA can be dissolved in water. Other ingredients of a PTF, which are mentioned in this description, are preferably present. If not specifically indicated, or if not specifically indicated otherwise, the time of stirring is one hour. In some cases, other stirring times are indicated, such as 12 hours.

VEGF = test: peritoneal tissue VEGF (ELISA) in rats after chronic peritoneal dialysis; type: in vivo, Sprague-Dawley rats; details: for VEGF concentration (pg/mL) in prot. prep., single animals: peritoneal tissue
Experimental: Animal Studies have been carried out as described in Lee et al. 2012: Peritoneal access ports were inserted in male Sprague-Dawley rats. After one week, rats started to received peritoneal treatment: 10 rats receive once daily 20 ml of Sol #4, 10 rats received 20 ml of Sol #4 with addition of selected BCA (resveratrol), during 2 hour infusions. After 2 to 4 weeks, the abdomen was opened, the peritoneum was recovered and submitted to protein extraction. Tissue VEGF concentration was established by ELISA (Abcam Rat VEGF ELISA Kit, ab100787) on obtained protein preparations (pg/ml).

[4] = Example 4, PD-Solution #3, 72 hours, 3 replicates per concentration
[5] = Example 4, PD-Solution #4, 72 hours, 3 replicates per concentration
[6] = Example 2, PD-Solution #1, 48 hours, 9 dilutions, Cmax=500 μM
[7] = Example 2, PD-Solution #2, 48 hours, 9 dilutions, Cmax=500 μM

In the case of `O=C(O)/C=C/c1ccc(O)c(O)c1` [Cafeic Acid, caffeic acid], the “improvement of cell viability of HPMC cells (resazurin to resorufin conversion)” value [1, 4] is reported as “up to 32%”, the “improvement of cell viability of HPMC cells (resazurin to resorufin conversion)” value [1, 5] is reported as “minor” and the “type of dialysis solution mainly improved” value [1] is reported as “mainly improved Icodextrin based dialysis solutions”.
For `Oc1cc(O)c2cc(O)c(-c3cc(O)c(O)c(O)c3)[o+]c2c1` [Delphinidin], the “improvement of cell viability of HPMC cells (resazurin to resorufin conversion)” value [1, 4] was “up to 57%”.
For `O=c1cc(-c2ccc(O)c(O)c2)oc2cc(O)cc(O)c12` [Luteolin], the “improvement of cell viability of HPMC cells (resazurin to resorufin conversion)” value [1, 4] was “up to 56%”, the “improvement of cell viability of HPMC cells (resazurin to resorufin conversion)” value [1, 5] was “up to 21%” and the “type of dialysis solution mainly improved” value [1] was “mainly improved Icodextrin based dialysis solutions”.
With `Oc1cc(O)cc(/C=C/c2ccc(O)c(O)c2)c1` [Piceatannol] the “improvement of cell viability of HPMC cells (resazurin to resorufin conversion)” value [1, 4] was “up to 44%” and the “improvement of cell viability of HPMC cells (resazurin to resorufin conversion)” value [1, 5] was “up to 40%”.
For `OC[C@H]1O[C@@H](Oc2cc(O)cc(/C=C/c3ccc(O)cc3)c2)[C@H](O)[C@@H](O)[C@@H]1O` [Piceid, resveratrol-3-O-β-mono-D-glucoside], the “improvement of viability of HPMC cells measured by ATP-level re-establishment” value [2] was 51%, the “effect on cell viability in control medium” value ([1]; Example 2, 48 hours) was “no significant effect” and the “improvement of cell viability of HPMC cells (resazurin to resorufin conversion)” value [1, 6] was “minor improvements”. The “improvement of cell viability of HPMC cells (resazurin to resorufin conversion)” value [1, 7] was “minor improvements”, the “effect reducing cyto-toxicity of all three tested peritoneal dialysis solutions” value ([1]; 48 hours) was “minor effect” and the “improvement of cell viability of HPMC cells (resazurin to resorufin conversion)” value [1, 4] was “up to 32%”. The “improvement of cell viability of HPMC cells (resazurin to resorufin conversion)” value [1, 5] was “up to 17%” and the “cell viability on Glucose based and on Icodextrin based PD-Solutions” value [1] was “increased cell viability”.
In the case of `COc1cc(/C=C/c2ccc(O)cc2)cc(OC)c1` [Pterostilbene], the “improvement of cell viability of HPMC cells (resazurin to resorufin conversion)” value [1, 4] is reported as 183% and the “improvement of cell viability of HPMC cells (resazurin to resorufin conversion)” value [1, 5] is reported as 118%.
In the case of `Oc1ccc(/C=C/c2cc(O)cc(O)c2)cc1` [Resveratrol, trans-3,5,4′-trihydroxystilbene], the “concentration after 12 hours stirring” value [3] is reported as “above 24 mg/L”, the “effect on cell viability in control medium” value ([1]; Example 2, 48 hours) is reported as “no significant effect” and the “improvement of cell viability of HPMC cells (resazurin to resorufin conversion)” value [1, 6] is reported as “up to 20%”. The “improvement of cell viability of HPMC cells (resazurin to resorufin conversion)” value [1, 7] was “up to 40%”, the “improvement of cell viability of HPMC cells (resazurin to resorufin conversion)” value ([1]; Example 2, PD-Solution #3, 48 hours, 9 dilutions, Cmax=500 μM) was “up to 40%” and the “effect reducing cyto-toxicity of all three tested peritoneal dialysis solutions” value ([1]; 48 hours) was “strong effect”. The “improvement of viability of HPMC cells (resazurin to resorufin conversion)” value ([1]; PD-Solution #1, 72 hours, Cmax=500 μM) was “up to 84%”, the “improvement of viability of HPMC cells (resazurin to resorufin conversion)” value ([1]; PD-Solution #2, 72 hours, Cmax=500 μM) was “up to 28%” and the “improvement of viability of HPMC cells (resazurin to resorufin conversion)” value ([1]; PD-Solution #3, 72 hours, Cmax=500 μM) was “up to 105%”. For the same compound, the “cell viability on Glucose based and on Icodextrin based PD-Solutions” value [1] was “increased cell viability”, the “VEGF concentration (pg/mL) in prot. prep., Average” value (VEGF; Sol #4 + 40 μM Resveratrol, 2 and 4 weeks combined, 10 rats) was 60.94 pg/mL and the “VEGF concentration (pg/mL) in prot. prep., single animals” value (VEGF; Sol #4 + 40 μM Resveratrol, 2 weeks treatment) was 50.21 pg/mL and 39.99 pg/mL and 70.88 pg/mL and 77.84 pg/mL and 60.12 pg/mL. For the same compound, the “VEGF concentration (pg/mL) in prot. prep., single animals” value (VEGF; Sol #4 + 40 μM Resveratrol, 4 weeks treatment) was 62.02 pg/mL and 63.71 pg/mL and 57.91 pg/mL and 68.45 pg/mL and 58.23 pg/mL and the “expression of VEGF in the peritoneum of standard PDF treated rats” value (VEGF; addition to Sol #4, 2 to 4 weeks peritoneal dialysis) was “decreases expression of VEGF”.
